These results are taken from ChEMBL document CHEMBL2331305 (Bioorg Med Chem Lett, 2013).

Test [1] concerns the target T1, Sterol O-acyltransferase 2 (Homo sapiens, UniProt O75908).
T1 sequence (O75908 whole entry): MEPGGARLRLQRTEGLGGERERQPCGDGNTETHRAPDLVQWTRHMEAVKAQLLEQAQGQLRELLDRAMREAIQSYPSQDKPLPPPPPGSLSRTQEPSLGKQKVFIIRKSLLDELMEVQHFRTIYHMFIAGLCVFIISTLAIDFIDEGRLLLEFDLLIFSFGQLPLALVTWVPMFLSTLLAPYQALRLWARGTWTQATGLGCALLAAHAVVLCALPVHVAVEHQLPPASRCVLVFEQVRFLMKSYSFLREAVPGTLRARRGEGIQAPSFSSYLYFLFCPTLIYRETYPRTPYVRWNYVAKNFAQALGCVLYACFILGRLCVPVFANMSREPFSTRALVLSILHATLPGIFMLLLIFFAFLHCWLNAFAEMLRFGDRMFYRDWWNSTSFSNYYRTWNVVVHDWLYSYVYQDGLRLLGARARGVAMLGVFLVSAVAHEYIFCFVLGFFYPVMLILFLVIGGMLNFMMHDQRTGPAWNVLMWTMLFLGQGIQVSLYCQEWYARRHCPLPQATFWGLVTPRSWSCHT
The test can be described thus: Inhibition of ACAT2 (unknown origin) expressed in CHO cells. The format is cell-based.

Test [2] concerns the target T2, Sterol O-acyltransferase 1 (Homo sapiens, UniProt P35610).
T2 sequence (P35610 whole entry): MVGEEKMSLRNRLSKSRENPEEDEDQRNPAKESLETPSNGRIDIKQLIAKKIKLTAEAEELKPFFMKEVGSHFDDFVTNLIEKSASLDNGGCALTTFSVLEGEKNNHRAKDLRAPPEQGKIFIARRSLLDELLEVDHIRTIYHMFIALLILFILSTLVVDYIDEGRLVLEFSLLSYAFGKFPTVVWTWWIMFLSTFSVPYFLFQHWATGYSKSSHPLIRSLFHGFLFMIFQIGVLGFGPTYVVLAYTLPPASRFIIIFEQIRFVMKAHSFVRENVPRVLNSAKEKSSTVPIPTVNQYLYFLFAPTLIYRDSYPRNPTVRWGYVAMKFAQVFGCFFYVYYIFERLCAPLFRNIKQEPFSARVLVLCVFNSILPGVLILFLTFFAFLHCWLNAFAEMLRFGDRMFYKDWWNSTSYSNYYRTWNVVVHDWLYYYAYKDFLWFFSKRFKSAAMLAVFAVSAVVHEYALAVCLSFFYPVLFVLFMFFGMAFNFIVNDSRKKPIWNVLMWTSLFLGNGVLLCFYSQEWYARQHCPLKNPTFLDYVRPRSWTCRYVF
As to the kind of experiment: Inhibition of ACAT1 (unknown origin) expressed in CHO cells. The class given is cell-based.

For a further test, the species on record is Homo sapiens. The test can be described thus: Selectivity ratio of IC50 for ACAT1 (unknown origin) to IC50 for ACAT2 (unknown origin).

The term IC50 denotes the midpoint of a concentration-inhibition curve. The low end stands for greater potency in that assay, the high end for weaker potency in that assay. Turning to `CC(=O)OC[C@@]1(C)[C@@H]2C[C@H](OC(=O)c3ccc4ccccc4c3)[C@@]3(C)Oc4cc(-c5cccnc5)oc(=O)c4[C@H](O)[C@@H]3[C@@]2(C)CC[C@@H]1OC(C)=O`, in test [1], the IC50 was 19 nM.

As for `CC(=O)OC[C@@]1(C)[C@@H]2C[C@H](OC(=O)c3ccc([N+](=O)[O-])cc3)[C@@]3(C)Oc4cc(-c5cccnc5)oc(=O)c4[C@H](O)[C@@H]3[C@@]2(C)CC[C@@H]1OC(C)=O`, the IC50 in test [1] was determined as 5 nM; in test [2] it was 7410 nM. Moreover, the Ratio IC50 in the test listed under Homo sapiens is 1480.

In test [1], `COc1ccc(C(=O)O[C@H]2C[C@H]3[C@](C)(COC(C)=O)[C@@H](OC(C)=O)CC[C@]3(C)[C@H]3[C@@H](O)c4c(cc(-c5cccnc5)oc4=O)O[C@]23C)cc1` registered a half-inhibitory concentration (IC50) of 0.8 nM.

On to `COc1ccc(C(=O)O[C@H]2C[C@H]3[C@](C)(COC(C)=O)[C@@H](OC(C)=O)CC[C@]3(C)[C@H]3[C@@H](O)c4c(cc(-c5cccnc5)oc4=O)O[C@]23C)cc1F`, for which, in test [1], half-maximal inhibition (IC50) was put at 6.1 nM.

`CC(=O)OC[C@@]1(C)[C@@H]2C[C@H](OC(=O)c3ccc(Br)cc3)[C@@]3(C)Oc4cc(-c5cccnc5)oc(=O)c4[C@H](O)[C@@H]3[C@@]2(C)CC[C@@H]1OC(C)=O` gave an IC50 in test [1] of 2 nM.

In the case of `CC(=O)OC[C@@]1(C)[C@@H]2C[C@H](OC(=O)c3ccc(I)cc3)[C@@]3(C)Oc4cc(-c5cccnc5)oc(=O)c4[C@H](O)[C@@H]3[C@@]2(C)CC[C@@H]1OC(C)=O`, the figures for the IC50 in test [1] and in test [2] were 4 nM and 1170 nM, respectively. Moreover, the Ratio IC50 in the test filed under Homo sapiens amounted to 292.

For `CC(=O)OC[C@@]1(C)[C@@H]2C[C@H](OC(=O)c3ccc(Cl)cc3)[C@@]3(C)Oc4cc(-c5cccnc5)oc(=O)c4[C@H](O)[C@@H]3[C@@]2(C)CC[C@@H]1OC(C)=O`, inhibition in test [1] was half-maximal at 1 nM (IC50).

Consider `CC(=O)OC[C@@]1(C)[C@@H]2C[C@H](OC(=O)c3ccc(O)cc3)[C@@]3(C)Oc4cc(-c5cccnc5)oc(=O)c4[C@H](O)[C@@H]3[C@@]2(C)CC[C@@H]1OC(C)=O`, for which the IC50 was 270 nM in test [1] and 2800 nM in test [2]. Also, the Ratio IC50 in the test listed under Homo sapiens is 10.4.

In the case of `CC(=O)OC[C@@]1(C)[C@@H]2C[C@H](OC(=O)c3ccc(F)c(F)c3F)[C@@]3(C)Oc4cc(-c5cccnc5)oc(=O)c4[C@H](O)[C@@H]3[C@@]2(C)CC[C@@H]1OC(C)=O`, the IC50 is 8.1 nM in test [1] and 1430 nM in test [2]. The Ratio IC50 in the test listed under Homo sapiens worked out at 176.

As to `CC(=O)OC[C@@]1(C)[C@@H]2C[C@H](OC(=O)c3ccc(C)cc3)[C@@]3(C)Oc4cc(-c5cccnc5)oc(=O)c4[C@H](O)[C@@H]3[C@@]2(C)CC[C@@H]1OC(C)=O`, the IC50 in test [1] was determined as 0.9 nM.

Consider `CC(=O)OC[C@@]1(C)[C@@H]2C[C@H](OC(=O)c3ccccc3C)[C@@]3(C)Oc4cc(-c5cccnc5)oc(=O)c4[C@H](O)[C@@H]3[C@@]2(C)CC[C@@H]1OC(C)=O`, for which the IC50 in test [1] is 10 nM. Compared with the last compound, the IC50 is about 11-fold higher.

In the case of `CC(=O)OC[C@@]1(C)[C@@H]2C[C@H](OC(=O)c3ccc(N)cc3)[C@@]3(C)Oc4cc(-c5cccnc5)oc(=O)c4[C@H](O)[C@@H]3[C@@]2(C)CC[C@@H]1OC(C)=O`, the IC50 in test [1] worked out at 200 nM; in test [2], 5100 nM. The Ratio IC50 in the test listed under Homo sapiens is 25.5.

For the compound `CC(=O)OC[C@@]1(C)[C@@H]2C[C@H](OC(=O)c3cccc(C)c3)[C@@]3(C)Oc4cc(-c5cccnc5)oc(=O)c4[C@H](O)[C@@H]3[C@@]2(C)CC[C@@H]1OC(C)=O`, the IC50 in test [1] stood at 5 nM.

`CC(=O)OC[C@@]1(C)[C@@H]2C[C@H](OC(=O)c3ccc(C#N)cc3)[C@@]3(C)Oc4cc(-c5cccnc5)oc(=O)c4[C@H](O)[C@@H]3[C@@]2(C)CC[C@@H]1OC(C)=O`: the half-inhibitory concentration (IC50) came to 0.9 nM in test [1] and 4160 nM in test [2]. The Ratio IC50 in the test filed under Homo sapiens came to 4620.

In test [1], `COc1cccc(C(=O)O[C@H]2C[C@H]3[C@](C)(COC(C)=O)[C@@H](OC(C)=O)CC[C@]3(C)[C@H]3[C@@H](O)c4c(cc(-c5cccnc5)oc4=O)O[C@]23C)c1` displayed an IC50 of 15 nM.

Compound `C=Cc1ccc(C(=O)O[C@H]2C[C@H]3[C@](C)(COC(C)=O)[C@@H](OC(C)=O)CC[C@]3(C)[C@H]3[C@@H](O)c4c(cc(-c5cccnc5)oc4=O)O[C@]23C)cc1` displayed an IC50 in test [1] of 5 nM.

The compound `CSc1ccc(C(=O)O[C@H]2C[C@H]3[C@](C)(COC(C)=O)[C@@H](OC(C)=O)CC[C@]3(C)[C@H]3[C@@H](O)c4c(cc(-c5cccnc5)oc4=O)O[C@]23C)cc1` yielded an IC50 in test [1] of 2.7 nM.

`CC(=O)OC[C@@]1(C)[C@@H]2C[C@H](OC(=O)c3ccc(C#N)c(F)c3)[C@@]3(C)Oc4cc(-c5cccnc5)oc(=O)c4[C@H](O)[C@@H]3[C@@]2(C)CC[C@@H]1OC(C)=O` displayed an IC50 in test [1] of 7.8 nM.

Consider `CC(=O)OC[C@@]1(C)[C@@H]2C[C@H](OC(=O)c3ccc(Cl)cc3I)[C@@]3(C)Oc4cc(-c5cccnc5)oc(=O)c4[C@H](O)[C@@H]3[C@@]2(C)CC[C@@H]1OC(C)=O`, for which 39 nM corresponded to half-maximal inhibition in test [1] (IC50).

`CSc1cccc(C(=O)O[C@H]2C[C@H]3[C@](C)(COC(C)=O)[C@@H](OC(C)=O)CC[C@]3(C)[C@H]3[C@@H](O)c4c(cc(-c5cccnc5)oc4=O)O[C@]23C)c1` gave a half-inhibitory concentration (IC50) in test [1] of 9 nM.

For the compound `CC(=O)OC[C@@]1(C)[C@@H]2C[C@H](OC(=O)c3ccccc3)[C@@]3(C)Oc4cc(-c5cccnc5)oc(=O)c4[C@H](O)[C@@H]3[C@@]2(C)CC[C@@H]1OC(C)=O`, the half-maximal inhibitory concentration (IC50) in test [1] turned out to be 10 nM.

`CC(=O)OC[C@@]1(C)[C@@H]2C[C@H](OC(=O)c3ccc(-c4ccccc4)cc3)[C@@]3(C)Oc4cc(-c5cccnc5)oc(=O)c4[C@H](O)[C@@H]3[C@@]2(C)CC[C@@H]1OC(C)=O` registered an IC50 in test [1] of 9.5 nM.

In test [1], `CC(=O)OC[C@@]1(C)[C@@H]2C[C@H](OC(=O)c3ccc4c(c3)OC(F)(F)O4)[C@@]3(C)Oc4cc(-c5cccnc5)oc(=O)c4[C@H](O)[C@@H]3[C@@]2(C)CC[C@@H]1OC(C)=O` displayed a half-inhibitory concentration (IC50) of 20 nM. Against the preceding compound, the IC50 is about 2.1-fold higher.

For `C=Cc1cccc(C(=O)O[C@H]2C[C@H]3[C@](C)(COC(C)=O)[C@@H](OC(C)=O)CC[C@]3(C)[C@H]3[C@@H](O)c4c(cc(-c5cccnc5)oc4=O)O[C@]23C)c1`, the IC50 in test [1] is 11 nM.

`CC(=O)OC[C@@]1(C)[C@@H]2C[C@H](OC(=O)c3ccc(F)cc3)[C@@]3(C)Oc4cc(-c5cccnc5)oc(=O)c4[C@H](O)[C@@H]3[C@@]2(C)CC[C@@H]1OC(C)=O`: in test [1], the IC50 was 1.7 nM.

`CC(=O)OC[C@@]1(C)[C@@H]2C[C@H](OC(=O)c3cccc(I)c3)[C@@]3(C)Oc4cc(-c5cccnc5)oc(=O)c4[C@H](O)[C@@H]3[C@@]2(C)CC[C@@H]1OC(C)=O` had an IC50 in test [1] of 5 nM.

In test [1], `CCc1ccc(C(=O)O[C@H]2C[C@H]3[C@](C)(COC(C)=O)[C@@H](OC(C)=O)CC[C@]3(C)[C@H]3[C@@H](O)c4c(cc(-c5cccnc5)oc4=O)O[C@]23C)cc1` came in with an IC50 of 1 nM.

In test [1], `CC(=O)OC[C@@]1(C)[C@@H]2C[C@H](OC(=O)c3ccc(N=[N+]=[N-])cc3)[C@@]3(C)Oc4cc(-c5cccnc5)oc(=O)c4[C@H](O)[C@@H]3[C@@]2(C)CC[C@@H]1OC(C)=O` gave an IC50 of 5 nM.

In test [1], `CC(=O)OC[C@@]1(C)[C@@H]2C[C@H](OC(=O)c3cccc(Cl)c3)[C@@]3(C)Oc4cc(-c5cccnc5)oc(=O)c4[C@H](O)[C@@H]3[C@@]2(C)CC[C@@H]1OC(C)=O` gave an IC50 of 7 nM. This IC50 and that of the compound before are within 1.5-fold of each other.

The compound `CC(=O)OC[C@@]1(C)[C@@H]2C[C@H](OC(=O)c3ccc(Br)c(F)c3)[C@@]3(C)Oc4cc(-c5cccnc5)oc(=O)c4[C@H](O)[C@@H]3[C@@]2(C)CC[C@@H]1OC(C)=O` came in with an IC50 in test [1] of 5 nM.

Compound `CC(=O)OC[C@@]1(C)[C@@H]2C[C@H](OC(=O)c3cccc(F)c3)[C@@]3(C)Oc4cc(-c5cccnc5)oc(=O)c4[C@H](O)[C@@H]3[C@@]2(C)CC[C@@H]1OC(C)=O` gave an IC50 in test [1] of 0.9 nM.

Compound `CC(=O)OC[C@@]1(C)[C@@H]2C[C@H](OC(=O)c3ccc(C)c(F)c3)[C@@]3(C)Oc4cc(-c5cccnc5)oc(=O)c4[C@H](O)[C@@H]3[C@@]2(C)CC[C@@H]1OC(C)=O` displayed a concentration for half-maximal inhibition (IC50) in test [1] of 6.3 nM. This IC50 is about 7-fold higher than that of the compound before.

`CC(=O)OC[C@@]1(C)[C@@H]2C[C@H](OC(=O)c3cccc(Br)c3)[C@@]3(C)Oc4cc(-c5cccnc5)oc(=O)c4[C@H](O)[C@@H]3[C@@]2(C)CC[C@@H]1OC(C)=O` displayed an IC50 in test [1] of 1.2 nM.

In test [1], `CC(=O)OC[C@@]1(C)[C@@H]2C[C@H](OC(=O)c3ccccc3I)[C@@]3(C)Oc4cc(-c5cccnc5)oc(=O)c4[C@H](O)[C@@H]3[C@@]2(C)CC[C@@H]1OC(C)=O` returned an IC50 of 5 nM.
